Experimental data reported in patent US20120071496A1, “Aminopyrimidinamides As Pest Control Agents” (Bayer CropScience AG, priority 2009, published 2012).

System: not listed separately
Experiment: logP (HCOOH)
Format: physicochemical
Conditions: HCOOH (formic acid); Table 2

| SMILES | chromatographic logP |
| --- | --- |
| CCc1ncccc1C(=O)Nc1c(NC2CC2)ncnc1-c1ccc(Cl)cc1 [1-177, N-[4-(4-Chlorophenyl)-6-cyclopropylaminopyemidin-5-yl]-2-ethylnicotinamide] | 1.31 |

Same assay, conditions: HCOOH (formic acid); Table 4

| SMILES | chromatographic logP |
| --- | --- |
| CCc1ncccc1C(=O)Nc1c(Cl)ncnc1NC1CC1 [3-1, N-(4-Chloro-6-cyclopropylaminopyrimidin-5-yl)-2-ethylnicotinamide] | 0.79 |

Same assay, conditions: Table 2

| SMILES | logP (HCOOH) |
| --- | --- |
| O=C(Nc1c(NC2CC2)ncnc1-c1ccc(F)cc1F)c1cccnc1CC(F)(F)F [1-254] | 1.83 |
| CCc1ncccc1C(=O)Nc1c(NC2CC2)ncnc1-c1ccc(Cn2nc(C(F)(F)F)nc2C(F)(F)F)cc1 [1-258] | 2.07 |
| CCCc1ncccc1C(=O)Nc1c(NC2CC2)ncnc1-c1ccc(Cn2nc(C(F)(F)F)nc2C(F)(F)F)cc1 [1-264] | 1.9 |
| CCc1ncccc1C(=O)Nc1c(NC2CC2)ncnc1-c1ccc(Oc2ncc(C(F)(F)F)cc2Cl)cc1 [1-310] | 1.84 |

System: green peach aphid (Myzus persicae)
Experiment: whole plant or invertebrate
Conditions: in Brassica rapa, 144 h, read-out: mortality in % (aphids killed)
Protocol: Myzus Persicae—Test; (Spray Application) 2
Solvent: 78.0 parts by weight acetone • 1.5 parts by weight dimethylformamide Emulsifier: 0.5 parts by weight alkylarylpolyglcolether
After 6 days mortality in % is determined.

| SMILES | mortality at 500 g/ha [%] |
| --- | --- |
| CCc1ncccc1C(=O)Nc1c(Cl)ncnc1NC1CC1 [3-1, N-(4-Chloro-6-cyclopropylaminopyrimidin-5-yl)-2-ethylnicotinamide] | ≥ 80 |

System: mustard beetle larvae (Phaedon cochleariae)
Experiment: not given
Conditions: application rate 500 g/ha; sprayed Chinese cabbage leaf-disks; after 7 days
Protocol: Phaedon Cochleariae —Test; (Spray Application)
Chinese cabbage (Brassica pekinesis) leaf-disks are sprayed with a preparation of the active ingredient of the desired concentration. Once dry, the leaf disks are infested with mustard beetle larvae (Phaedon cochleariae).
After 7 days mortality in % is determined.

| SMILES | mortality in % (beetle larvae killed) |
| --- | --- |
| CCc1ccccc1C(=O)Nc1c(NC2CC2)nc(C)nc1-c1ccccc1 [1-280] | 1-280% |

System: Spodoptera litura third instar larvae
Experiment: Test against tobacco cutworm (Spodoptera litura) larvae
Format: in vivo
Conditions: active compound concentration 100 ppm; immersed sweet potato leaves; after 7 days
Protocol: Unless not mentioned otherwise, the test solutions were prepared as follows:
Containing as solvent: Dimethylformamide, 3 parts by weight; and as emulsifier: Polyoxyethylene alkyl phenyl ether, 1 part by weight
Test Against Tobacco Cutworm (Spodoptera litura) Larvae
Leaves of sweet potato were immersed in the test solution at the appropriate concentration, and the leaves were dried in air. The leaves were then placed in a petri dish having a diameter of 9 cm, and ten Spodoptera litura at third instar larvae were released therein. The petri dishes were placed in a temperature-controlled chamber at 25° C. After 2 days and 4 days more sweet potato leaves were added. After 7 days, the number of dead larvae was counted to calculate the insecticidal activity. An insecticidal activity of 100% means that all larvae were killed, whereas an insecticidal activity of 0% means that no larva was killed.

| SMILES | insecticidal activity [%] |
| --- | --- |
| CCc1ncccc1C(=O)Nc1c(NC2CC2)ncnc1-c1ccc(Cl)cc1 [1-177, N-[4-(4-Chlorophenyl)-6-cyclopropylaminopyemidin-5-yl]-2-ethylnicotinamide] | 100 |
| CCCc1ncccc1C(=O)Nc1c(NC2CC2)ncnc1-c1ccc(C#N)cc1 [1-246] | 100 |
| CCc1ncccc1C(=O)Nc1c(NC2CC2)ncnc1-c1ccc(Cn2nc(C(F)(F)C(F)(F)F)cc2C(F)(F)F)cc1 [1-247] | 100 |
| O=C(Nc1c(NC2CC2)ncnc1-c1ccc(Cn2nc(C(F)(F)F)cc2C(F)(F)F)cc1)c1cccnc1C1CC1 [1-252] | 100 |
| O=C(Nc1c(NC2CC2)ncnc1-c1ccc(Cn2nc(C(F)(F)C(F)(F)F)cc2C(F)(F)F)cc1)c1cccnc1C1CC1 [1-253] | 100 |
| O=C(Nc1c(NC2CC2)ncnc1-c1ccc(F)cc1F)c1cccnc1CC(F)(F)F [1-254] | 100 |
| CCc1ccccc1C(=O)Nc1c(NC2CC2)ncnc1-c1ccc(OC(F)(F)F)cc1 [1-257] | 100 |
| CCc1ncccc1C(=O)Nc1c(NC2CC2)ncnc1-c1ccc(Cn2nc(C(F)(F)F)nc2C(F)(F)F)cc1 [1-258] | 100 |
| O=C(Nc1c(NC2CC2)ncnc1-c1ccc(Cn2nc(C(F)(F)F)nc2C(F)(F)F)cc1)c1cccnc1C1CC1 [1-259] | 100 |
| CCCc1ncccc1C(=O)Nc1c(NC2CC2)ncnc1-c1ccc(Cn2nc(C(F)(F)F)nc2C(F)(F)F)cc1 [1-264] | 100 |
| CCc1ccccc1C(=O)Nc1c(NC2CC2)ncnc1-c1ccc(Cn2nc(C(F)(F)F)nc2C(F)(F)F)cc1 [1-265] | 100 |
| CCc1ncccc1C(=O)Nc1c(NC2CC2)ncnc1-c1ccc(Cn2ccc(C(F)(F)C(F)(F)F)n2)cc1 [1-266] | 100 |
| CCc1ncccc1C(=O)Nc1c(NC2CC2)ncnc1-c1ccc(Cn2ccc(C(F)(F)C(F)(F)C(F)(F)F)n2)cc1 [1-267] | 100 |
| CCc1ncccc1C(=O)Nc1c(NC2CC2)ncnc1-c1ccc(Cn2nc(C(F)(F)F)cc2C(F)(F)F)cc1 [1-268] | 100 |
| CCc1ncccc1C(=O)Nc1c(NC2CC2)ncnc1-c1ccc(Cn2nc(C(F)(F)C(F)(F)F)cc2C(F)(F)C(F)(F)F)cc1 [1-269] | 100 |
| CCc1ccccc1C(=O)Nc1c(NC2CC2)ncnc1-c1ccc(Cn2cnc(C(F)(F)F)n2)cc1 [1-286] | 100 |
| CCc1ncccc1C(=O)Nc1c(NC2CC2)ncnc1-c1ccc(Oc2ncc(C(F)(F)F)cc2Cl)cc1 [1-310] | 100 |
| CCc1ncccc1C(=O)Nc1c(NC2CC2)ncnc1-c1ccc(Oc2ncccc2C(F)(F)F)cc1 [1-311] | 100 |
| CCc1ncccc1C(=O)Nc1c(NC2CC2)ncnc1-c1ccc(Oc2cccc(C(F)(F)F)n2)cc1 [1-312] | 100 |
| CCc1ncccc1C(=O)Nc1c(NC2CC2)nc(C(F)(F)F)nc1-c1ccc(F)cc1 [1-313] | 100 |
| CCc1ncccc1C(=O)Nc1c(NC2CC2)nc(C(F)(F)F)nc1-c1ccc(F)cc1F [1-314] | 100 |
| CCc1ncccc1C(=O)Nc1c(NC2CC2)ncnc1-c1ccc(Oc2nc(C(F)(F)F)cc(C(F)(F)C(F)(F)F)n2)cc1 [1-317] | 100 |
| CCc1ncccc1C(=O)Nc1c(NC2CC2)ncnc1-c1ccc(Cc2nc(C(F)(F)C(F)(F)C(F)(F)F)n(C)n2)cc1 [1-318] | 100 |
| CCc1ncccc1C(=O)Nc1c(NC2CC2)ncnc1-c1ccc(Cc2n[nH]c(C(F)(F)C(F)(F)C(F)(F)F)n2)cc1 [1-319] | 100 |
| O=C(Nc1c(NC2CC2)nc(C(F)(F)F)nc1-c1ccc(F)cc1)c1cccnc1CC(F)(F)F [1-324] | 100 |
| O=C(Nc1c(NC2CC2)nc(Cl)nc1-c1ccc(F)cc1)c1cccnc1CC(F)(F)F [1-325] | 100 |
| CCc1ncccc1C(=O)Nc1c(NC2CC2)nc(Cl)nc1-c1ccc(F)cc1 [1-326] | 100 |
| CCc1ncccc1C(=O)Nc1c(Cl)ncnc1Nc1ccc(F)cc1 [5-2] | 100 |
